Laboratory results as given in US12686673B2 (Blueprint Medicines Corporation, priority 2020, dated 2026).

What was measured:
Format in all cases: cell-based
[1] = target: HER2 (A775_G776insYVMA) expressing Ba/F3 stable cell line (Homo sapiens, UniProt P04626, DUP772-775, cells depend on it); experiment: Cellular proliferation (Alamar Blue) assay, HER2 A775_G776insYVMA Ba/F3; conditions: 72 hr, read-out: YVMA IC50
Description: • 1. EGFR(D770_N771insSVD) expressing Ba/F3 stable cell line • 2. EGFR (A767_dupASV) expressing Ba/F3 stable cell line • 3. A431 cells • 4. EGFR (H773insNPH) expressing Ba/F3 stable cell line • 5. HER2 (A775_G776insYVMA) expressing Ba/F3 stable cell line Assay Procedure: • 1. Seed cells at 5000 for A431 and 15,000 cells for Ba/F3 in 100 μL/well in complete media (for A431: DMEM with […] and for Ba/F3 cells: RPMI with 10% FBS) in 96-well tissue culture plate. Leave outer wells without cells for background measurements. Incubate at 37 degree Celsius in […] humidified incubator for 16-18 hours. • 2. Add 0.025 ml of 5× concentration compound dilution or DMSO control. Final compound concentration range is 10-0.0005 μM prepared in 3-fold serial dilutions. Incubate for 72 hr at 37 degree Celsius in […] humidified incubator. • 3. Add 0.0125 ml Alamar Blue™ reagent to each well with multi-channel pipette and tap gently on each side of the plate to mix. Incubate for 3 hours at 37 degree Celsius in 5% CO2 humidified incubator. • 4. […] Data analysis was performed using XLfit 5.5.0.5.

[2] = target: EGFR(D770_N771insSVD) expressing Ba/F3 stable cell line (Homo sapiens, UniProt P00533, DUP768-770, cells depend on it); experiment: Cellular proliferation (Alamar Blue) assay, EGFR D770_N771insSVD Ba/F3; conditions: 72 hr, read-out: D770 IC50
Method in brief: (§1)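 Each stable Ba/F3 line, cultured in RPMI with 10% FBS at 15,000 cells per well, received a threefold compound series (final top 10 μM, bottom 0.0005 μM) for 72 hr at 37 degree Celsius, then Alamar Blue for 3 h.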

[3] = target: EGFR (A767_dupASV) expressing Ba/F3 stable cell line (Homo sapiens, UniProt P00533, DUP767-769, cells depend on it); experiment: Cellular proliferation (Alamar Blue) assay, EGFR A767_dupASV Ba/F3; conditions: 72 hr, read-out: A767 IC50
Method in brief: as §1

[4] = test system: A431 cells; experiment: Cellular proliferation (Alamar Blue) assay, A431; conditions: Homo sapiens, A-431; A431 cells, 72 hr, Alamar Blue; read-out: A431 IC50

Chain of EGFR (A767_dupASV) expressing Ba/F3 stable cell line (P00533 with tags, fused parts or gaps DUP767-769): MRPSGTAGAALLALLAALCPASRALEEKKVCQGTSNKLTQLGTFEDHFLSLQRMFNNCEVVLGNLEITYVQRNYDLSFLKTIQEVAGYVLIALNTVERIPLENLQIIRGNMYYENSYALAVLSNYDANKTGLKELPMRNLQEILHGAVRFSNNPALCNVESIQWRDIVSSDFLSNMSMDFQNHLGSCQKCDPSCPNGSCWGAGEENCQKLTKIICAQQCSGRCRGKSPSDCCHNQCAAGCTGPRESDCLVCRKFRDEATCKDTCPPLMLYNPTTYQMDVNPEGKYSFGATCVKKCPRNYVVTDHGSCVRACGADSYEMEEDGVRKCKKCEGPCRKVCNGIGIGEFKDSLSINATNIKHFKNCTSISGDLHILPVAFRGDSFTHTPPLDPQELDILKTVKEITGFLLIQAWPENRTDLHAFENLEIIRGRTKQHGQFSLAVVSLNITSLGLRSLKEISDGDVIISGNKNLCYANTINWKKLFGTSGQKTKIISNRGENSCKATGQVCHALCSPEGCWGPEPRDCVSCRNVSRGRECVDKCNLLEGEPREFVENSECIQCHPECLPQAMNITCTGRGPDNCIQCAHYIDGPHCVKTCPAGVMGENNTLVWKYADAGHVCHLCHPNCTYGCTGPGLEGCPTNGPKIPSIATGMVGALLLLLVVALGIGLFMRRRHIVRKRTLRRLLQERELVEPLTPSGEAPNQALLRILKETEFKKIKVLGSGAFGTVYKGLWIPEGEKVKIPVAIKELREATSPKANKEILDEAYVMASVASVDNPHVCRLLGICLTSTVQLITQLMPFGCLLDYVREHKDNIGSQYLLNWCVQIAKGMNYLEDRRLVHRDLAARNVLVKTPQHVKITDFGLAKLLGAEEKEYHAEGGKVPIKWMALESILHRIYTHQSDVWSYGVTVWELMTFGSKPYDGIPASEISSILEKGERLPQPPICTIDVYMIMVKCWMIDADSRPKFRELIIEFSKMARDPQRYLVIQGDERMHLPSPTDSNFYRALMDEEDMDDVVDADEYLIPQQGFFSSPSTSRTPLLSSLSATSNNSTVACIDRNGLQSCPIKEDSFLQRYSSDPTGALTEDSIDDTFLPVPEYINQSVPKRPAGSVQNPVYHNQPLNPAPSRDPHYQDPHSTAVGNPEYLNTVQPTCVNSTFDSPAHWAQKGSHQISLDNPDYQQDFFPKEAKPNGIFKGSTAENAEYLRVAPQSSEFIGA
Chain of HER2 (A775_G776insYVMA) expressing Ba/F3 stable cell line (P04626 with tags, fused parts or gaps DUP772-775): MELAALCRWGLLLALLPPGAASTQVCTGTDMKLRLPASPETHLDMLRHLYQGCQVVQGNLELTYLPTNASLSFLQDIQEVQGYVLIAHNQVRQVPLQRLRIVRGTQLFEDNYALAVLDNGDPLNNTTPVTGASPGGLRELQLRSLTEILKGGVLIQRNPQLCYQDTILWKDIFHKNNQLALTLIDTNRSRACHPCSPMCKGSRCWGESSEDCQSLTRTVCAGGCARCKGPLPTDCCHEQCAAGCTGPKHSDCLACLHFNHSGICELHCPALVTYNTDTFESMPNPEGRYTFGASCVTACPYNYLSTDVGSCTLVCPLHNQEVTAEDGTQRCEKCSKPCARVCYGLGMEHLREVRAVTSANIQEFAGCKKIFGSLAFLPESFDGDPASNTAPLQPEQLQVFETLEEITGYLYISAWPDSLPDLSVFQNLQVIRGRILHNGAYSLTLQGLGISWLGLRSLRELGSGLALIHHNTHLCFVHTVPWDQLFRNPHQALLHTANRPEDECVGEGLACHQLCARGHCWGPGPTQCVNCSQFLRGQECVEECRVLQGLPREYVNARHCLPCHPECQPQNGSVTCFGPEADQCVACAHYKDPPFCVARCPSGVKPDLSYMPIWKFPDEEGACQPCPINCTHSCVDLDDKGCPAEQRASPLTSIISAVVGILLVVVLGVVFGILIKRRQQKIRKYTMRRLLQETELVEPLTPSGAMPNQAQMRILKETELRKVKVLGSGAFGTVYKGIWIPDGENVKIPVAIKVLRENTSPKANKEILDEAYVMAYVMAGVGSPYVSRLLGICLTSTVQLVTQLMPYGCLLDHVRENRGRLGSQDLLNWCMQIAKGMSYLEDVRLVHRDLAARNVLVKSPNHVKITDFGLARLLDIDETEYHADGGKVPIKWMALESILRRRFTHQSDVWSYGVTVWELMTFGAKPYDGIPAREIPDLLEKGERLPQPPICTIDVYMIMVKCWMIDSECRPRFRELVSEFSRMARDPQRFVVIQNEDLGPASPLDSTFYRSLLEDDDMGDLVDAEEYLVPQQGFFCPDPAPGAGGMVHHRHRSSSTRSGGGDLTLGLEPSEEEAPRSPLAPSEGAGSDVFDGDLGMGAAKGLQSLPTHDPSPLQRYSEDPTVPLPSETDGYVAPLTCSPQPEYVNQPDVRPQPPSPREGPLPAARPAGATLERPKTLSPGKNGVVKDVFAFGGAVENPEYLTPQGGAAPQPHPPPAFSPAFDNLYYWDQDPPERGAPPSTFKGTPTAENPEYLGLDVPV
Chain of EGFR(D770_N771insSVD) expressing Ba/F3 stable cell line (P00533 with tags, fused parts or gaps DUP768-770): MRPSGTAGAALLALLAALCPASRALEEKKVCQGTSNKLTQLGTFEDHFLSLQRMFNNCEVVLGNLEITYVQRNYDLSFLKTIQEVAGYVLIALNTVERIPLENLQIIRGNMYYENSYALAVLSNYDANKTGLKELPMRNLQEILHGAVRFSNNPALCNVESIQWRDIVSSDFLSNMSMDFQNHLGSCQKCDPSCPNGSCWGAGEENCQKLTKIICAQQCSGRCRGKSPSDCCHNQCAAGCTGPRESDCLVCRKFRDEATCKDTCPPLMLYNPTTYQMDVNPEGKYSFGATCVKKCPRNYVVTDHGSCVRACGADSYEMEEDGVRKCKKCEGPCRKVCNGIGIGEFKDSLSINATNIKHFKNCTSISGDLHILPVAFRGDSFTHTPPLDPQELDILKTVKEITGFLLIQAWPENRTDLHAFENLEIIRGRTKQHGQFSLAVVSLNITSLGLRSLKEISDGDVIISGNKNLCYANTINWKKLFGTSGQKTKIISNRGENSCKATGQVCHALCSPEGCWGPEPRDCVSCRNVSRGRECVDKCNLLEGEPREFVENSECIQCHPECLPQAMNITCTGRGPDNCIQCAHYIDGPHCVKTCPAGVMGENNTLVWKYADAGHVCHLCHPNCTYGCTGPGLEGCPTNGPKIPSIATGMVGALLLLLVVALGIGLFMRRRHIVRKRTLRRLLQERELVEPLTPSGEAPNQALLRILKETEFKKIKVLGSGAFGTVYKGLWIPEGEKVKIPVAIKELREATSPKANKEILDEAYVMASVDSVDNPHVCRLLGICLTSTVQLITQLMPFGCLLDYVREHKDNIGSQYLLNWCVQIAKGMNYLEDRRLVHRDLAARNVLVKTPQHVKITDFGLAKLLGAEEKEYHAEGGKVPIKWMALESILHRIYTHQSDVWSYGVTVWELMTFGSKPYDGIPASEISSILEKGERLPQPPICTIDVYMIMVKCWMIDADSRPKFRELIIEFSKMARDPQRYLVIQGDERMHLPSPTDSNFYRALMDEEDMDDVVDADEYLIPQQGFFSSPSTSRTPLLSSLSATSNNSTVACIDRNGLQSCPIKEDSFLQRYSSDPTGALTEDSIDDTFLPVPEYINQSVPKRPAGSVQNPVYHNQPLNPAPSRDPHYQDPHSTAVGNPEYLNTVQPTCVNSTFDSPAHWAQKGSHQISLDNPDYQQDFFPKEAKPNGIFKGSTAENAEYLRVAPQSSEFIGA

SMILES	GI50 [1]	GI50 [2]	GI50 [3]	IC50 [4]
C=CC(=O)Nc1ccc(F)c(Nc2nc(Nc3cnn(C)c3)ncc2-c2ccccc2Cl)c1 [Compound 150, N-(3-((5-(2-chlorophenyl)-2-((1-methyl-1H-pyrazol-4-yl)amino)pyrimidin-4-yl)amino)-4-fluorophenyl)acrylamide 2,2,2-trifluoroacetate]	1.81 µM			
C=CC(=O)Nc1cccc(Oc2nc(Nc3cnn(C)c3)ncc2N2CCN(C)CC2)c1 [Compound 223, N-(3-((2-((1-methyl-1H-pyrazol-4-yl)amino)-5-(4-methylpiperazin-1-yl)pyrimidin-4-yl)oxy)phenyl)acrylamide]		9.03 µM	9.7 µM	3.93 µM
C=CC(=O)Nc1cccc(Nc2nc(Nc3cnn(C)c3)nc(NC)c2-c2ccc(C(F)(F)F)cc2)c1 [Compound 224, N-[3-({2-[(1-methyl-1H-pyrazol-4-yl)amino]-6-(methylamino)-5-[4-(trifluoromethyl)phenyl]pyrimidin-4-yl}amino)phenyl] prop-2-enamide]		> 10 µM	> 10 µM	> 10 µM
C=CC(=O)Nc1ccc(F)c(Nc2nc(Nc3cnoc3)ncc2-c2ccc(C(F)(F)F)cc2)c1 [Compound 225, N-[4-fluoro-3-({2-[(1,2-oxazol-4-yl)amino]-5-[4-(trifluoromethyl)phenyl]pyrimidin-4-yl}amino)phenyl]prop-2-enamide]		1.24 µM	2.69 µM	0.637 µM
C=CC(=O)Nc1ccc(F)c(Nc2nc(Nc3cnn(C)c3)ncc2C2=CCN(C)C2)c1 [Compound 226, N-[4-fluoro-3-({2-[(1-methyl-1H-pyrazol-4-yl)amino]-5-(1-methyl-2,5-dihydro-1H-pyrrol-3-yl)pyrimidin-4-yl}amino)phenyl]prop-2-enamide]		0.793 µM	1.61 µM	1.78 µM
C=CC(=O)Nc1ccc(F)c(Nc2nc(Nc3cnn(C)c3)ncc2C2CCN(C)C2)c1 (stereo not shown) [Compound 227, N-[4-fluoro-3-({2-[(1-methyl-1H-pyrazol-4-yl)amino]-5-(1-methylpyrrolidin-3-yl)pyrimidin-4-yl}amino)phenyl]prop-2-enamide]		> 10 µM	7.09 µM	6.06 µM
C=CC(=O)Nc1cccc(N(C)c2nc(Nc3cnn(C)c3)ncc2-c2ccc(C(F)(F)F)cc2)c1 [Compound 229, N-(3-(methyl(2-((1-methyl-1H-pyrazol-4-yl)amino)-5-(4-(trifluoromethyl)phenyl)pyrimidin-4-yl)amino)phenyl)acrylamide]		0.318 µM	0.426 µM	0.222 µM
C=CC(=O)Nc1ccc(F)c(Nc2nc(Nc3cnn(C)c3)nc3ccc(C(F)(F)F)cc23)c1 [Compound 231, N-(4-fluoro-3-((2-((1-methyl-1H-pyrazol-4-yl)amino)-6-(trifluoromethyl)quinazolin-4-yl)amino)phenyl)acrylamide]		8.55 µM	3.9 µM	4.21 µM
C=CC(=O)Nc1ccc(F)c(Nc2nc(Nc3cccnc3)ncc2-c2ccc(C(F)(F)F)cc2)c1 [Compound 232, N-(4-fluoro-3-((2-(pyridin-3-ylamino)-5-(4-(trifluoromethyl)phenyl)pyrimidin-4-yl)amino)phenyl)acrylamide]		0.724 µM	1.13 µM	0.539 µM
C=CC(=O)Nc1cccc(Oc2nc(Nc3ccc(CN(C)C)cc3)ncc2-c2ccc(C(F)(F)F)cc2)c1 [Compound 234, N-(3-((2-((4-((dimethylamino)methyl)phenyl)amino)-5-(4-(trifluoromethyl)phenyl)pyrimidin-4-yl)oxy)phenyl)acrylamide]		0.383 µM	0.948 µM	1.13 µM
C=CC(=O)Nc1cccc(Oc2nc(Nc3cnn(CCN(C)C)c3)ncc2-c2ccc(C(F)(F)F)cc2)c1 [Compound 235, N-(3-((2-((1-(2-(dimethylamino)ethyl)-1H-pyrazol-4-yl)amino)-5-(4-(trifluoromethyl)phenyl)pyrimidin-4-yl)oxy)phenyl)acrylamide]		0.619 µM	0.98 µM	1.07 µM
C=CC(=O)Nc1cccc(Oc2nc(NCCN(C)C)ncc2-c2ccc(C(F)(F)F)cc2)c1 [Compound 236, N-(3-((2-((2-(dimethylamino)ethyl)amino)-5-(4-(trifluoromethyl)phenyl)pyrimidin-4-yl)oxy)phenyl)acrylamide]		> 10 µM	> 10 µM	> 10 µM
C=C=CC(=O)Nc1ccc(F)c(Nc2nc(Nc3cnn(C)c3)ncc2-c2ccc(C(F)(F)F)cc2)c1 [Compound 251, N-(4-fluoro-3-((2-((1-methyl-1H-pyrazol-4-yl)amino)-5-(4-(trifluoromethyl)phenyl)pyrimidin-4-yl)amino)phenyl)buta-2,3-dienamide]		10 µM	9.88 µM	9.77 µM
C=CC(=O)Nc1ccc(F)c(Nc2nc(Nc3cnn(C)c3)ncc2C2CCOCC2)c1 [Compound 255, N-(4-fluoro-3-((2-((1-methyl-1H-pyrazol-4-yl)amino)-5-(tetrahydro-2H-pyran-4-yl)pyrimidin-4-yl)amino)phenyl)acrylamide]	> 10 µM			
Cn1cc(Nc2ncc(-c3ccc(C(F)(F)F)cc3)c(Nc3cc(N)ccc3F)n2)cn1 [Compound 257, N^4-(5-amino-2-fluorophenyl)-N^2-(1-methyl-1H-pyrazol-4-yl)-5-(4-(trifluoromethyl)phenyl)pyrimidine-2,4-diamine]		> 10 µM	> 10 µM	> 10 µM
C=CC(=O)Nc1ccc(F)c(Nc2nc(Nc3cnn(C)c3)ncc2C2=CCOC2)c1 [Compound 261, N-(3-{[5-(2,5-dihydrofuran-3-yl)-2-[(1-methyl-1H-pyrazol-4-yl)amino]pyrimidin-4-yl]amino}-4-fluorophenyl) prop-2-enamide]	0.222 µM			0.195 µM
C=CC(=O)Nc1ccc(F)c(Nc2nc(Nc3cnn(C)c3)ncc2-c2cccc3ncccc23)c1 [Compound 262, N-(4-fluoro-3-((2-((1-methyl-1H-pyrazol-4-yl)amino)-5-(quinolin-5-yl)pyrimidin-4-yl)amino)phenyl)acrylamide]	4.43 µM			
C=CC(=O)Nc1ccc(F)c(Nc2nc(Nc3cn(C)nc3Cl)ncc2-c2ccccc2F)c1 [Compound 264, N-(3-((2-((3-chloro-1-methyl-1H-pyrazol-4-yl)amino)-5-(2-fluorophenyl)pyrimidin-4-yl)amino)-4-fluorophenyl)acrylamide]	0.465 µM			0.145 µM
C=CC(=O)Nc1ccc(F)c(Nc2nc(Nc3cnn(C)c3)ncc2C2CCOC2)c1 (stereo not shown) [Compound 266, N-{4-fluoro-3-([2-[(1-methyl-1H-pyrazol-4-yl)amino]-5-(oxolan-3-yl)pyrimidin-4-yl}amino)phenyl] prop-2-enamide]	1.38 µM			0.768 µM
C=CC(=O)Nc1ccc(F)c(Nc2nc(Nc3cnn(C)c3)ncc2-c2ccccc2N(C)C)c1 [Compound 267, N-(3-((5-(2-(dimethylamino)phenyl)-2-((1-methyl-1H-pyrazol-4-yl)amino)pyrimidin-4-yl)amino)-4-fluorophenyl)acrylamide]	> 10 µM			5.8 µM
C=CC(=O)Nc1ccc(F)c(Nc2nc(Nc3cnn(C)c3)ncc2-c2cccc3ccncc23)c1 [Compound 268, N-(4-fluoro-3-((5-(isoquinolin-8-yl)-2-((1-methyl-1H-pyrazol-4-yl)amino)pyrimidin-4-yl)amino)phenyl)acrylamide]	> 10 µM			3.44 µM
Cn1cc(Nc2ncc(-c3ccc(CC(F)(F)F)cc3)c(Nc3cc(NC(=O)/C=C/CF)ccc3F)n2)cn1 [Compound 303, (E)-4-fluoro-N-(4-fluoro-3-((2-((1-methyl-1H-pyrazol-4-yl)amino)-5-(4-(2,2,2-trifluoroethyl)phenyl)pyrimidin-4-yl)amino)phenyl)but-2-enamide]		0.111 µM	0.248 µM	0.02 µM
CN(C)C/C=C/C(=O)Nc1ccc(F)c(Nc2nc(Nc3cnn(C)c3)ncc2-c2ccc(Br)cc2)c1 [Compound 304, (E)-N-(3-((5-(4-bromophenyl)-2-((1-methyl-1H-pyrazol-4-yl)amino)pyrimidin-4-yl)amino)-4-fluorophenyl)-4-(dimethylamino)but-2-enamide]		1.52 µM	0.969 µM	0.79 µM
C=CC(=O)Nc1ccc(F)c(Nc2nc(N(C)c3cnn(C)c3)ncc2-c2cc(F)cc(OC)c2)c1 [Compound 305, N-(4-fluoro-3-((5-(3-fluoro-5-methoxyphenyl)-2-(methyl(1-methyl-1H-pyrazol-4-yl)amino)pyrimidin-4-yl)amino)phenyl)acrylamide]		> 10 µM	> 10 µM	> 10 µM
